Common to all, as to assay type: cell-based
Assay [1] concerns Bacillus subtilis ATCC 9525. The assay is described as follows: button assay, antibacterial activity. The settings on record: 24 hours at 37° C; for Antibacterial Activity B.subtilis, minimum inhibitory concentration: lowest concentration showing a clear zone of inhibition; for MIC: Bacillus subtilis, ATCC9525, lowest concentration showing a clear zone of inhibition, read-out: Antibacterial Activity B.subtilis, minimum inhibitory concentration. The method, then: (§1) In the test program, the minimum inhibitory concentrations of the respective test compounds against various Gram positive and Gram negative bacteria were determined, employing the "button assay" method. The test organisms utilized were standard cultures of Staphylococcus aureus ATCC 6538 DR, a penicillin resistant Gram positive bacterium; Bacillus subtilis ATCC 9525, a spore-forming Gram positive bacillus; and Salmonella typhosa ATCC 6539, a Gram negative bacterium.
(§2) In the tests the respective compounds were dissolved in a suitable solvent, usually acetone or dimethylsulfoxide, to give solutions with known concentrations of active material. The highest concentration was ordinarily 1000 ppm (parts per million) [0.1%], and dilutions were made in suitable steps down to 1 ppm. Penicillin test buttons of filter paper having a diameter of 13 mm (socalled "Peniassay" buttons) were added to each solution within a test tube and left submerged for five minutes. They were then removed and left to dry on paper towels under sterile conditions. A laminar flow sterile cabinet equipped with ultraviolet lamps operating under positive air pressure was utilized for this purpose.
(§3) An 18-24 hour old nutrient broth culture (standard 1.5% nutrient agar) prepared in conventional manner from a slant and having passed through at least three consecutive daily transfers was used for inoculation. Melted and cooled sterile agar (45° C) was inoculated with the respective broth cultures by addition of 20 ml broth per liter of agar. The agar was then dispensed into Petri dishes (20 ml per plate) under sterile conditions and allowed to harden.
The test buttons were placed on the surface of the hardened agar and the plates incubated for 24 hours at 37° C. Where, on inspection, a clear zone of inhibition appeared around the button, inhibition of growth was presumed. Where growth touched the button there was no inhibition. For each of the test compounds, the lowest concentration showing a clear zone is reported as the inhibitory concentration in the following table.
(§4) The button assay and agar incorporation tests were also utilized to determine the corresponding inhibitory concentrations of various control materials, viz., the following well known commercial antimicrobials and fungicides: hexachlorophene, tribromosalicylanilide, trichlorocarbanilide,Captan (N-(trichloromethylthio)4cyclohexene-1,2-dicarboximide) and Zineb (zinc ethylenebis[dithiocarbamate]). The minimum inhibitory concentration of each of the various control materials against the respective organisms is indicated in Table IV below: […]

Assay [2] relates to Aspergillus niger ATCC 6257. In words: agar incorporation test, antifungal activity. The conditions noted are these: lowest concentration showing no growth or sporulation, four days at 28° C; for MIC: Aspergillus niger, ATCC6257, 96 h, read-out: Antifungal Activity A. niger, minimum inhibitory concentration. As for the experimental part: The anti-fungal activity of the test compounds was determined employing the "agar incorporation" technique, utilizing spores from Aspergillus niger ATCC 6257 as a representative organism. Test solutions were prepared as described above in acetone or dimethylsulfoxide. A source of carbon agar such as Mycophil Agar was used. The agar was melted and cooled and placed in a constant temperature water bath at 45° C + 3° C. About 13-14 ml of the agar was then poured into a sterile Petri dish, the required amount of test solution to give the desired concentration immediately added thereto, and the dish rotated and swirled by hand to obtain a uniform mixture before the agar hardened.
The hardened plates were inoculated with the test organism by fishing spores from a 7-14 day old slant with the inocculating needle and spotting the spores on the plates, usually in several places. The inoculated plates were incubated for four days in an incubator maintained at 28° C +2° C and with a relative humidity of 95%+.
The lowest concentration of each test compound showing no growth or sporulation of the test organism was taken as the minimum inhibitory concentration and is reported in the following tabulation.
as §4

Assay [3] has as its system Staphylococcus aureus ATCC 6538 DR. The assay is described as follows: button assay, antibacterial activity. The settings on record: for Antibacterial Activity S.aureus, minimum inhibitory concentration: button assay, lowest concentration showing a clear zone of inhibition, 24 hours at 37° C; for MIC: Staphylococcus aureus, ATCC6538, 24 h, read-out: Antibacterial Activity S.aureus, minimum inhibitory concentration. As for the experimental part:
as §1, §2, §3
(§5) The test buttons were placed on the surface of the hardened agar and the plates incubated for 24 hours at 37° C. Where, on inspection, a clear zone of inhibition appeared around the button, inhibition of growth was presumed. Where growth touched the button there was no inhibition. For each of the test compounds, the lowest concentration showing a clear zone is reported as the inhibitory concentration in the following table. […]

Assay [4] concerns Salmonella typhosa ATCC 6539. The assay is described as follows: button assay, antibacterial activity. The settings on record: for MIC: Salmonella enterica, read-out: Antibacterial Activity S.typhosa, minimum inhibitory concentration. The method, then:
as §1
The highest concentration was ordinarily 1000 ppm (parts per million) [0.1%], and dilutions were made in suitable steps down to 1 ppm. Penicillin test buttons of filter paper having a diameter of 13 mm (socalled "Peniassay" buttons) were added to each solution within a test tube and left submerged for five minutes. They were then removed and left to dry on paper towels under sterile conditions. A laminar flow sterile cabinet equipped with ultraviolet lamps operating under positive air pressure was utilized for this purpose.
as §3, §5

The mark [5] stands for this setting: button assay, lowest concentration showing a clear zone of inhibition, 24 hours at 37° C.

Converted amounts (≈) assume the structure as drawn. Read-outs that look alike come from different tables or passages of the source.

Turning to `N#CC=CS(=O)(=O)c1ccc(NP(=O)(Nc2ccc(S(=O)(=O)C=CC#N)cc2)N(CCCl)CCCl)cc1` [Example 52, di-(2-chloroethyl)amido-di-4-(2-cyanoethenesulfonylanilido)phosphine oxide], the “Antibacterial Activity B.subtilis, minimum inhibitory concentration” value in assay [1] is reported as 10 ppm. Moreover, the “Antifungal Activity A. niger, minimum inhibitory concentration” value in assay [2] worked out at 100 ppm. Also, the “Antibacterial Activity S.aureus, minimum inhibitory concentration” value in assay [3] was determined as 10 ppm. The “Antibacterial Activity S.typhosa, minimum inhibitory concentration” value in assay [4] (setting [5]) came to 10 ppm.

Take `Cc1ccc(S(=O)(=O)C=CC#N)cc1NS(=O)(=O)c1ccccc1` [Example 12, 3-(3-benzenesulfonamido-4-methylbenzenesulfonyl)acrylonitrile]: the MIC in assay [1] was 100 µg/mL (≈ 276 µM); in assay [2], over 1000 µg/mL; in assay [3], 100 µg/mL (≈ 276 µM); in assay [4] (24 h) it was 100 µg/mL (≈ 276 µM).

With `N#CC=CS(=O)(=O)c1ccc(NP(=O)(Nc2ccc(S(=O)(=O)C=CC#N)cc2)Nc2ccc(S(=O)(=O)C=CC#N)cc2)cc1` [Example 45, TRIS-N,N', N"-4-(2-CYANOETHENESULFONYL)PHENYL PHOSPHORAMIDE], the MIC in assay [1] was determined as 5 µg/mL (≈ 7.48 µM); in assay [2], 300 µg/mL (≈ 449 µM); in assay [3], 50 µg/mL (≈ 74.8 µM); in assay [4] (24 h), 50 µg/mL (≈ 74.8 µM).

As to `CCS(=O)(=O)Nc1ccc(S(=O)(=O)C=CC#N)cc1` [Example 2, 3-(4-ethanesulfonamidobenzenesulfonyl)acrylonitrile], the MIC was 20 µg/mL (≈ 66.6 µM) in assay [1], over 1000 µg/mL in assay [2], 100 µg/mL (≈ 333 µM) in assay [3] and 20 µg/mL (≈ 66.6 µM) in assay [4] (24 h).

In the case of `COc1ccc(S(=O)(=O)Nc2ccc(S(=O)(=O)C=CC#N)cc2)cc1` [Example 28, 3-[4-(4-methoxybenzenesulfonamido)benzenesulfonyl] acrylonitrile], the MIC in assay [1] was 10 µg/mL (≈ 26.4 µM); in assay [2], over 1000 µg/mL; in assay [3] it was 1 µg/mL (≈ 2.64 µM); in assay [4] (24 h) it was 5 µg/mL (≈ 13.2 µM).

In the case of `CC(=O)Nc1ccc(S(=O)(=O)C=CC#N)cc1` [3-(4-acetamidobenzenesulfonyl)acrylonitrile, reference compound], the MIC in assay [1] is 20 µg/mL (≈ 79.9 µM); in assay [2] it was over 1000 µg/mL; in assay [3] it was 50 µg/mL (≈ 200 µM); in assay [4] (24 h) it was 20 µg/mL (≈ 79.9 µM).

On to `C=CS(=O)(=O)Nc1ccc(S(=O)(=O)C=CC#N)cc1` [Example 9, 3-(4-[…])ACRYLONITRILE], for which the MIC was determined as 10 µg/mL (≈ 33.5 µM) in assay [1], 100 µg/mL (≈ 335 µM) in assay [2], 20 µg/mL (≈ 67 µM) in assay [3] and 50 µg/mL (≈ 168 µM) in assay [4] (24 h).

For `N#CC=CS(=O)(=O)c1ccc(NS(=O)(=O)c2cc(Cl)cc(Cl)c2O)cc1` [Example 24, 3-[4-(3,5-dichloro-2-hydroxybenzenesulfonamido)-benzenesulfonyl]acrylonitrile], the MIC in assay [1] turned out to be 300 µg/mL (≈ 692 µM); in assay [2], 1000 µg/mL (≈ 2310 µM); in assay [3], 300 µg/mL (≈ 692 µM); in assay [4] (24 h), 300 µg/mL (≈ 692 µM).

In the case of `CC(=O)Nc1ccc(S(=O)(=O)Nc2ccc(S(=O)(=O)C=CC#N)cc2)cc1` [Example 30, 3-[4-(4-[…])BENZENESULFONYL]ACRYLONITRILE], the MIC was 50 µg/mL (≈ 123 µM) in assay [1], over 1000 µg/mL in assay [2], 50 µg/mL (≈ 123 µM) in assay [3] and 50 µg/mL (≈ 123 µM) in assay [4] (24 h).

For the molecule `Oc1c(Cl)cc(Cl)c(Cl)c1Cc1c(O)c(Cl)cc(Cl)c1Cl` [hexachlorophene, reference compound], the MIC was 5 µg/mL (≈ 12.3 µM) in assay [1], over 1000 µg/mL in assay [2], 5 µg/mL (≈ 12.3 µM) in assay [3] and 20 µg/mL (≈ 49.2 µM) in assay [4] (setting [5]).

As for `N#CC=CS(=O)(=O)c1ccc(NS(=O)(=O)c2ccc3ccccc3c2)cc1` [Example 35, 3-[4-(2-naphthalenesulfonamido)benzenesulfonyl]acrylonitrile], the MIC in assay [1] was 5 µg/mL (≈ 12.5 µM); in assay [2] it was over 1000 µg/mL; in assay [3], 10 µg/mL (≈ 25.1 µM); in assay [4] (24 h), 5 µg/mL (≈ 12.5 µM).

As for `O=C1C2CC=CCC2C(=O)N1SC(Cl)(Cl)Cl` (centres unmarked) [Captan, N-(trichloromethylthio)4cyclohexene-1,2-dicarboximide, reference compound], the MIC in assay [1] worked out at 100 µg/mL (≈ 333 µM); in assay [2] it was 300 µg/mL (≈ 998 µM); in assay [3], 25 µg/mL (≈ 83.2 µM); in assay [4] (setting [5]) it was 25 µg/mL (≈ 83.2 µM).

For `N#CC=CS(=O)(=O)c1ccc(NC(=O)c2cccc(S(=O)(=O)Nc3ccc(S(=O)(=O)C=CC#N)cc3)c2)cc1` [Example 31, N'-4-(2-cyanoethenesulfonyl)phenylN"-3-(2-cyanoethenesulfonyl)phenylsulfamoylbenzamide], the MIC in assay [1] was 20 µg/mL (≈ 34.3 µM); in assay [2], 100 µg/mL (≈ 172 µM); in assay [3], 20 µg/mL (≈ 34.3 µM); in assay [4] (24 h), 20 µg/mL (≈ 34.3 µM).

As to `N#CC=CS(=O)(=O)c1ccc(NS(=O)(=O)c2ccc(O)c(C(=O)O)c2)cc1` [Example 25, 3-[4-(4-HYDROXY-3-[…])-BENZENESULFONYL]ACRYLONITRILE], the MIC in assay [1] came out at 50 µg/mL (≈ 122 µM); in assay [2], 500 µg/mL (≈ 1220 µM); in assay [3], 50 µg/mL (≈ 122 µM); in assay [4] (24 h), 50 µg/mL (≈ 122 µM).

Consider `O=C(Nc1ccc(Cl)cc1)Nc1ccc(Cl)c(Cl)c1` [trichlorocarbanilide, reference compound], for which, in assay [1], the “Antibacterial Activity B.subtilis, minimum inhibitory concentration” value is > 10,000 ppm. Besides, the “Antifungal Activity A. niger, minimum inhibitory concentration” value in assay [2] is recorded as 1,000 ppm. Further, the “Antibacterial Activity S.aureus, minimum inhibitory concentration” value in assay [3] stood at 10 ppm. The “Antibacterial Activity S.typhosa, minimum inhibitory concentration” value in assay [4] (setting [5]) is listed as 10,000 ppm.

As for `N#CC=CS(=O)(=O)c1ccc(N)cc1` [3-(4-aminobenzenesulfonyl)acrylonitrile, reference compound], the MIC in assay [1] stood at 20 µg/mL (≈ 96 µM); in assay [2], 300 µg/mL (≈ 1440 µM); in assay [3] it was 20 µg/mL (≈ 96 µM); in assay [4] (24 h), 20 µg/mL (≈ 96 µM).

Consider `N#CC=CS(=O)(=O)c1ccc(NS(=O)(=O)c2ccc([N+](=O)[O-])cc2)cc1` [Example 22.1, 3-[4-(4-nitrobenzenesulfonamido)benzenesulfonyl]acrylonitrile], for which the MIC was 50 µg/mL (≈ 127 µM) in assay [1], over 1000 µg/mL in assay [2], 100 µg/mL (≈ 254 µM) in assay [3] and 50 µg/mL (≈ 127 µM) in assay [4] (24 h).

For `Cc1cc(C)c(S(=O)(=O)Nc2ccc(S(=O)(=O)C=CC#N)cc2)c(C)c1` [Example 18, 3-[4-(2,4,6-trimethylbenzenesulfonamido)benzenesulfonyl]acrylonitrile], the MIC in assay [1] amounted to 10 µg/mL (≈ 25.6 µM); in assay [2], 100 µg/mL (≈ 256 µM); in assay [3], 5 µg/mL (≈ 12.8 µM); in assay [4] (24 h) it was 10 µg/mL (≈ 25.6 µM).

With `N#CC=CS(=O)(=O)c1ccc(NS(=O)(=O)c2ccc(Cl)c([N+](=O)[O-])c2)cc1` [Example 23.2, 3-[4-(4-chloro-3-nitrobenzenesulfonamido)benzenesulfonyl]acrylonitrile], the MIC in assay [1] turned out to be 300 µg/mL (≈ 701 µM); in assay [2], 1000 µg/mL (≈ 2340 µM); in assay [3], 100 µg/mL (≈ 234 µM); in assay [4] (24 h), 100 µg/mL (≈ 234 µM).

Consider `CCCCS(=O)(=O)Nc1ccc(S(=O)(=O)C=CC#N)cc1` [Example 3, 3-(4-butanesulfonamidobenzenesulfonyl)acrylonitrile], for which the MIC in assay [1] was 20 µg/mL (≈ 60.9 µM); in assay [2], over 1000 µg/mL; in assay [3], 50 µg/mL (≈ 152 µM); in assay [4] (24 h) it was 50 µg/mL (≈ 152 µM).

Source of the values: patent publication US3943154A, “Acylamides of beta-cyano-ethenesulfonyl substituted aminoarenes” (Sanitized Incorporated, priority 1973, dated 1976).
